Data published in paper PMC10000267, “ALA‐A2 Is a Novel Anticancer Peptide Inspired by Alpha‐Lactalbumin: A Discovery from a Computational Peptide Library, In Silico Anticancer Peptide Screening and In Vitro Experimental Validation” (Global Challenges, 2023).
Residues, ends and D or L forms follow the SMILES beside them.

Assays:
[1] = tested on: MDA‐MB‐231 breast cancer cells; experiment: In vitro cancer cytotoxicity (MTT assay); format: cell-based, human; conditions: MDA‐MB‐231, peptide 200 µM, 24 h
Experimental: (§1) All cell lines were obtained from the American Type Culture Collection (ATCC, Manassas, VA, USA). The A549 lung adenocarcinoma (ATCC CCL‐185TM), MDA‐MB‐231 triple‐negative breast adenocarcinoma (ATCC HTB‐26TM), and SH‐SY5Y neuroblastoma (ATCC CRL‐2266TM) cell lines were cultured in Dulbecco's Modified Eagle's Medium (DMEM)‐high glucose (Gibco, Thermo Fisher Scientific, MA, USA). HT29 colon adenocarcinoma (ATCC HTB‐38) cell lines were maintained in DMEM/Nutrient Mixture F‐12 (Gibco). K562 chronic myeloid leukemia (ATCC CRL‐3344) were grown in Roswell Park Memorial Institute Medium 1640 (Gibco). The cells were cultured in medium supplemented with 10% fetal bovine serum (Gibco) and 1× penicillin/streptomycin (Gibco) and incubated in a 5% CO2 incubator with saturated humidity.
(§2) The protocol previously described by Chiangjong et al. and Baindara et al.^[ [5], [29] ^] was modified for use in determining the cytotoxicity of peptides on the various cancer types. Adherent cells were seeded at 1 × 10^4 cells/well into a 96‐well plate 24 h prior to replacing the media containing the peptide of interest. Suspended cells were seeded at 1 × 10^4 cells/well in the media containing the peptide of interest. Five human cell lines, including lung cancer (A549), colon cancer (HT29), breast cancer (MDA‐MB‐231), neuroblastoma (SH‐SY5Y), and leukemia (K562) cells, were treated with the culture media containing the peptides at 200 µM for 24 h. Cell viability was then determined using Cell Proliferation Kit I, MTT (Roche Diagnostics GmbH, Mannheim, Germany): MTT labeling reagent (10 µL) was added to each well and incubated at 37 °C in a 5% CO2 atmosphere for 4 h. After incubation, 100 µL solubilizing solution was added to each well and incubated at 37 °C in 5% CO2 overnight. The absorbance at 570 nm (A 570) was measured for each well. The percentage of cell viability was calculated as: (1) % Cell Viability=[A570 of treated cells − A570 of media/A570 of untreated cells−A570 of media] × 100

[2] = tested on: K562 leukemia cells; experiment: In vitro cancer cytotoxicity (MTT assay); format: cell-based, human; conditions: K562, peptide 200 µM, 24 h
Experimental: as §1, §2

[3] = tested on: SH‐SY5Y neuroblastoma cells; experiment: In vitro cancer cytotoxicity (MTT assay); format: cell-based, human; conditions: peptide 200 µM, 24 h
Experimental: as §1, §2

[4] = tested on: Human red blood cells; experiment: Ex vivo hemolysis assay (RBC lysis assay); format: cell-based; conditions: peptide 200 µM, 1 h; for percent hemolysis: ≈0.8% v/v human RBC suspension in 0.9% normal saline, room temperature, absorbance 415 nm, relative to 1% Triton X‐100, blood of three healthy individuals, mean ± SD
Experimental: The hemolysis assay was as described previously.^[ [30] ^] After informed consent, peripheral blood (3 mL) was collected from three healthy individuals into heparin tubes (BD Biosciences, NJ, USA). The specimen was centrifuged at 2000 × g for 5 min at room temperature, and the plasma was discarded. The RBCs were washed twice with PBS and then resuspended in 0.9% normal saline solution at a volume equivalent to that of the original plasma. Approximately 0.8% v/v RBC suspension was incubated with the peptides at 200 µM (100 µL final volume) in a U‐bottom 96‐well plate at room temperature for 1 h with agitation. 1% v/v Triton X‐100 was applied as a positive control. The untreated condition served as the blank control. After 1 h incubation, the supernatants were collected by centrifuging at 2000 × g for 5 min at room temperature. The absorbance of hemoglobin in the supernatant was measured at 415 nm. The hemolysis percentage was calculated as follows: (2) % Hemolysis = [sample absorbance−blank control/positive control−blank control] × 100

[5] = tested on: HT29 colon adenocarcinoma cells; experiment: In vitro cancer cytotoxicity (MTT assay); format: cell-based, human; conditions: HT29, peptide 200 µM, 24 h
Experimental: as §1, §2
(§3) To evaluate dose‐dependency, ≈1 × 10^4 cells/well were cultured in media containing ALA‐A2 at 0, 6.25, 12.5, 25, 50, 100, 200, and 400 µM in a 96‐well plate for 24 h. Cell viability was determined by the MTT assay, as above.

[6] = tested on: A549 lung adenocarcinoma cells; experiment: In vitro cancer cytotoxicity (MTT assay); format: cell-based, human; conditions: A549, peptide 200 µM, 24 h
Experimental: as §1, §2, §3

[7] = tested on: A549 lung cancer cells; experiment: Confocal microscopy: cell internalization and membrane integrity (PI); format: cell-based, human; conditions: A549, peptide 200 µM 24 h, Triton X‐100 0.5% v/v 10 min, PI staining
Experimental: All cells were then incubated with PI (1:2000) and Hoechst 33342 (1:5000) in the culture medium at 37 °C in 5% CO2 for 15 min. The cells were washed with PBS twice before being fixed with 4% paraformaldehyde (PFA) in PBS. The fixed cells were washed twice with PBS and mounted in 20% glycerol in PBS. […] Thereafter, the cells were stained with PI for 15 min at room temperature, washed with PBS, and then mounted with 20% glycerol in PBS. Internalization was visualized by confocal fluorescence microscopy (Nikon Instruments, Inc., Melville, NY, USA).

Compound	anticancer effect (in words) [1]	anticancer effect (in words) [2]	anticancer effect (in words) [3]	percent hemolysis [4]	anticancer effect (in words) [5]	anticancer effect (in words) [6]	hemolytic effect (in words) ([4]; human RBCs, Triton X‐100 1% v/v)	membrane integrity / propidium iodide internalization (in words) [7]
CC[C@H](C)[C@H](NC(=O)[C@H](CCC(N)=O)NC(=O)[C@H](Cc1ccccc1)NC(=O)[C@@H](N)CC(C)C)C(=O)N[C@@H](CO)C(=O)N[C@@H](CC(N)=O)C(=O)N[C@@H](CCCCN)C(=O)N[C@@H](CC(C)C)C(=O)N[C@@H](Cc1c[nH]c2ccccc12)C(=O)N[C@@H](CS)C(=O)N[C@@H](CCCCN)C(=O)N[C@@H](CO)C(=O)N[C@@H](CO)C(=O)N[C@@H](CCC(N)=O)C(=O)N[C@H](C(=O)N1CCC[C@H]1C(=O)N[C@@H](CCC(N)=O)C(=O)N[C@@H](CO)C(=O)N[C@@H](CCCNC(=N)N)C(=O)N[C@@H](CC(N)=O)C(=O)O)C(C)C [ALA‐A4] (H-LFQISNKLWCKSSQVPQSRN-OH)	did not exhibit a substantial anticancer effect	did not exhibit a substantial anticancer effect	did not exhibit a substantial anticancer effect	0.7% ± 0.6%	did not exhibit a substantial anticancer effect	did not exhibit a substantial anticancer effect	–	–
Triton X‐100 [reference compound]	–	–	–	–	–	–	completely lysed	is internalized
CC[C@H](C)[C@H](NC(=O)CNC(=O)[C@@H](NC(=O)[C@H](CC(C)C)NC(=O)[C@H](Cc1ccccc1)NC(=O)[C@H](CC(C)C)NC(=O)[C@@H]1CCCN1C(=O)[C@@H](NC(=O)[C@H](Cc1ccccc1)NC(=O)[C@H](Cc1ccccc1)NC(=O)[C@@H](N)CCCNC(=N)N)C(C)C)C(C)C)C(=O)N[C@@H](CC(C)C)C(=O)N[C@@H](Cc1ccccc1)C(=O)N1CCC[C@H]1C(=O)N[C@@H](C)C(=O)N[C@H](C(=O)N[C@@H](CC(C)C)C(=O)N[C@@H](C)C(=O)N[C@@H](CCCCN)C(=O)N[C@@H](CCC(N)=O)C(=O)N[C@@H](Cc1ccccc1)C(=O)N[C@H](C(=O)N[C@@H](CCCCN)C(=O)O)[C@@H](C)O)[C@@H](C)CC [ALA‐A1] (H-RFFVPLFLVGILFPAILAKQFTK-OH)	did not exhibit a substantial anticancer effect	did not exhibit a substantial anticancer effect	did not exhibit a substantial anticancer effect	5.6% ± 0.6%	did not exhibit a substantial anticancer effect	did not exhibit a substantial anticancer effect	–	–
CC[C@H](C)[C@H](NC(=O)[C@H](CO)NC(=O)[C@@H]1CCCN1C(=O)[C@H](C)NC(=O)CNC(=O)[C@H](CC(C)C)NC(=O)[C@H](CCCCN)NC(=O)[C@H](CCCCN)NC(=O)[C@H](CCSC)NC(=O)[C@H](CCCNC(=N)N)NC(=O)[C@H](Cc1c[nH]c2ccccc12)NC(=O)[C@H](CCC(N)=O)NC(=O)[C@H](Cc1c[nH]c2ccccc12)NC(=O)[C@H](CCCNC(=N)N)NC(=O)[C@H](CCCNC(=N)N)NC(=O)[C@H](CS)NC(=O)[C@H](CCCCN)NC(=O)[C@@H](N)Cc1ccccc1)C(=O)N[C@H](C(=O)N[C@@H](CS)C(=O)N[C@H](C(=O)N[C@@H](CCCNC(=N)N)C(=O)O)C(C)C)[C@@H](C)O [BMP‐S6, reference compound]	–	exhibited cancer cytotoxicity	–	–	–	–	–	–
CC[C@H](C)[C@H](NC(=O)CNC(=O)[C@@H](NC(=O)[C@H](CC(C)C)NC(=O)[C@H](Cc1ccccc1)NC(=O)[C@H](CC(C)C)NC(=O)[C@@H]1CCCN1C(=O)[C@@H](NC(=O)[C@H](Cc1ccccc1)NC(=O)[C@H](Cc1ccccc1)NC(=O)[C@@H](N)CCCNC(=N)N)C(C)C)C(C)C)C(=O)N[C@@H](CC(C)C)C(=O)N[C@@H](Cc1ccccc1)C(=O)N1CCC[C@H]1C(=O)N[C@@H](C)C(=O)N[C@H](C(=O)N[C@@H](CC(C)C)C(=O)N[C@@H](C)C(=O)N[C@@H](CCCCN)C(=O)N[C@@H](CCC(N)=O)C(=O)N[C@@H](Cc1ccccc1)C(=O)N[C@H](C(=O)N[C@@H](CCCCN)C(=O)N[C@@H](CS)C(=O)O)[C@@H](C)O)[C@@H](C)CC [ALA‐A3] (H-RFFVPLFLVGILFPAILAKQFTKC-OH)	did not exhibit a substantial anticancer effect	did not exhibit a substantial anticancer effect	did not exhibit a substantial anticancer effect	1.3% ± 1.2%	did not exhibit a substantial anticancer effect	did not exhibit a substantial anticancer effect	–	–
